Test results as given in PubChem BioAssay (NCI).
Where “and” joins values, the source holds several entries; their conditions need not be identical. Equal values may be shown once.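 All cell lines were grown in 96-well plates and treated with compound for 48 hours. At the GI50, growth is halved. At the TGI there is no net growth.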

Columns and labels:
Assay in all cases: growth of human tumour cells (NCI), 48 h
HCC-2998 colon = tested on: HCC-2998 colon
UO-31 renal = tested on: UO-31 renal
CCRF-CEM leukemia = tested on: CCRF-CEM leukemia
OVCAR-4 ovarian = tested on: OVCAR-4 ovarian
OVCAR-3 ovarian = tested on: OVCAR-3 ovarian
SK-OV-3 ovarian = tested on: SK-OV-3 ovarian
HL-60(TB) leukemia = tested on: HL-60(TB) leukemia
SW-620 colon = tested on: SW-620 colon
SF-268 CNS = tested on: SF-268 CNS
HT29 colon = tested on: HT29 colon
SNB-78 CNS = tested on: SNB-78 CNS
HOP-62 NSCLC = tested on: HOP-62 NSCLC
MOLT-4 leukemia = tested on: MOLT-4 leukemia
SR leukemia = tested on: SR leukemia
SF-295 CNS = tested on: SF-295 CNS
TK-10 renal = tested on: TK-10 renal
OVCAR-5 ovarian = tested on: OVCAR-5 ovarian
RPMI-8226 leukemia = tested on: RPMI-8226 leukemia
NCI-H522 lung = tested on: NCI-H522 lung
RXF 393 renal = tested on: RXF 393 renal
UACC-257 melanoma = tested on: UACC-257 melanoma
SK-MEL-5 melanoma = tested on: SK-MEL-5 melanoma
A498 renal = tested on: A498 renal
KM12 colon = tested on: KM12 colon
U251 CNS = tested on: U251 CNS
UACC-62 melanoma = tested on: UACC-62 melanoma
ACHN renal = tested on: ACHN renal
IGROV1 ovarian = tested on: IGROV1 ovarian
SNB-19 CNS = tested on: SNB-19 CNS
SK-MEL-28 melanoma = tested on: SK-MEL-28 melanoma
A549 NSCLC = tested on: A549 NSCLC
RXF-631 renal = tested on: RXF-631 renal
DMS 114 small cell lung = tested on: DMS 114 small cell lung
SK-MEL-2 melanoma = tested on: SK-MEL-2 melanoma
HCT-15 colon = tested on: HCT-15 colon
DLD-1 colon = tested on: DLD-1 colon
M19-MEL melanoma = tested on: M19-MEL melanoma
OVCAR-8 ovarian = tested on: OVCAR-8 ovarian
DMS 273 small cell lung = tested on: DMS 273 small cell lung
HOP-18 NSCLC = tested on: HOP-18 NSCLC
MALME-3M melanoma = tested on: MALME-3M melanoma
CAKI-1 renal = tested on: CAKI-1 renal
LXFL 529 NSCLC = tested on: LXFL 529 NSCLC
786-0 renal = tested on: 786-0 renal
KM20L2 colon = tested on: KM20L2 colon
SF-539 CNS = tested on: SF-539 CNS
SNB-75 CNS = tested on: SNB-75 CNS
K-562 leukemia = tested on: K-562 leukemia
HCT-116 colon = tested on: HCT-116 colon
NCI-H460 lung = tested on: NCI-H460 lung
M14 melanoma = tested on: M14 melanoma
HOP-92 NSCLC = tested on: HOP-92 NSCLC
LOX IMVI melanoma = tested on: LOX IMVI melanoma
NCI-H23 lung = tested on: NCI-H23 lung
EKVX NSCLC = tested on: EKVX NSCLC
NCI-H226 lung = tested on: NCI-H226 lung
COLO 205 colon = tested on: COLO 205 colon
SN12C renal = tested on: SN12C renal
XF 498 CNS = tested on: XF 498 CNS

With `CCCCCCCCCCCCCC(=O)OC(/C=C/C(C)C)C(O)C(O)C(OC)C(=O)NC1CCCCN(C)C1=O` (stereo not given) the TGI (HCC-2998 colon) was 5.54 µM and > 49 µM, the GI50 (UO-31 renal) was greater than 49 µM and the TGI (UO-31 renal) was 5.25 µM and > 49 µM. For the same compound, the GI50 (CCRF-CEM leukemia) was greater than 49 µM, the TGI (CCRF-CEM leukemia) was 10.7 µM and > 49 µM and the TGI (OVCAR-4 ovarian) was 7.57 µM and > 49 µM. For the same compound, the TGI (OVCAR-3 ovarian) was 8.03 µM and > 49 µM, the GI50 (SK-OV-3 ovarian) was greater than 49 µM and the TGI (SK-OV-3 ovarian) was 11.5 µM and > 49 µM. For the same compound, the TGI (HL-60(TB) leukemia) was 5.49 µM and 10.4 µM and > 49 µM, the GI50 (SW-620 colon) was greater than 49 µM and the TGI (SW-620 colon) was 6.06 µM and > 49 µM. The TGI (SF-268 CNS) was 8.63 µM and > 49 µM, the TGI (HT29 colon) was 7.01 µM and > 49 µM and the TGI (SNB-78 CNS) was 14.8 µM. The TGI (HOP-62 NSCLC) was 6.54 µM and > 49 µM, the TGI (MOLT-4 leukemia) was 7.54 µM and > 49 µM and the GI50 (SR leukemia) was 1.12 µM. The TGI (SR leukemia) was 4.78 µM and 5.75 µM, the TGI (SF-295 CNS) was 5.97 µM and > 49 µM and the GI50 (TK-10 renal) was greater than 49 µM. For the same compound, the TGI (TK-10 renal) was 32.5 µM and > 49 µM, the GI50 (OVCAR-5 ovarian) was greater than 49 µM and the TGI (OVCAR-5 ovarian) was 10.8 µM and > 49 µM. For the same compound, the GI50 (RPMI-8226 leukemia) was greater than 49 µM, the TGI (RPMI-8226 leukemia) was 9.97 µM and > 49 µM and the TGI (NCI-H522 lung) was 6.67 µM and > 49 µM. The GI50 (RXF 393 renal) was greater than 49 µM, the TGI (RXF 393 renal) was 6.22 µM and > 49 µM and the GI50 (UACC-257 melanoma) was greater than 49 µM. The TGI (UACC-257 melanoma) was 18.3 µM and > 49 µM, the TGI (SK-MEL-5 melanoma) was 5.92 µM and > 49 µM and the GI50 (A498 renal) was greater than 49 µM. The TGI (A498 renal) was 32.5 µM and > 49 µM, the TGI (KM12 colon) was 7.49 µM and > 49 µM and the TGI (U251 CNS) was 6.43 µM and > 49 µM. For the same compound, the TGI (UACC-62 melanoma) was 6.15 µM and > 49 µM, the TGI (ACHN renal) was 5.14 µM and > 49 µM and the TGI (IGROV1 ovarian) was 5.9 µM and > 49 µM. The GI50 (SNB-19 CNS) was greater than 49 µM, the TGI (SNB-19 CNS) was 6.46 µM and > 49 µM and the GI50 (SK-MEL-28 melanoma) was greater than 49 µM. For the same compound, the TGI (SK-MEL-28 melanoma) was 7.64 µM and > 49 µM, the TGI (A549 NSCLC) was 5.06 µM and > 49 µM and the GI50 (RXF-631 renal) was greater than 49 µM. The TGI (RXF-631 renal) was 7.52 µM and > 49 µM, the GI50 (DMS 114 small cell lung) was greater than 49 µM and the TGI (DMS 114 small cell lung) was 5.44 µM and > 49 µM. The GI50 (SK-MEL-2 melanoma) was greater than 49 µM, the TGI (SK-MEL-2 melanoma) was 9.12 µM and > 49 µM and the TGI (HCT-15 colon) was 7.55 µM and > 49 µM. For the same compound, the GI50 (DLD-1 colon) was greater than 49 µM, the TGI (DLD-1 colon) was 6.56 µM and > 49 µM and the GI50 (M19-MEL melanoma) was greater than 49 µM. For the same compound, the TGI (M19-MEL melanoma) was 7.5 µM and > 49 µM, the TGI (OVCAR-8 ovarian) was 8.44 µM and > 49 µM and the GI50 (DMS 273 small cell lung) was greater than 49 µM. For the same compound, the TGI (DMS 273 small cell lung) was 4.98 µM and > 49 µM, the GI50 (HOP-18 NSCLC) was 6.44 µM and the TGI (HOP-18 NSCLC) was 9.84 µM and > 49 µM. For the same compound, the TGI (MALME-3M melanoma) was 7.93 µM and > 49 µM, the TGI (CAKI-1 renal) was 7.51 µM and the GI50 (LXFL 529 NSCLC) was greater than 49 µM. The TGI (LXFL 529 NSCLC) was 6.89 µM and > 49 µM, the TGI (786-0 renal) was 5.94 µM and > 49 µM and the GI50 (KM20L2 colon) was greater than 49 µM. The TGI (KM20L2 colon) was 7.64 µM and > 49 µM, the TGI (SF-539 CNS) was 7.18 µM and > 49 µM and the TGI (SNB-75 CNS) was 8.6 µM and > 49 µM. For the same compound, the GI50 (K-562 leukemia) was greater than 49 µM, the TGI (K-562 leukemia) was 13.4 µM and > 49 µM and the GI50 (HCT-116 colon) was greater than 49 µM. The TGI (HCT-116 colon) was 5.46 µM and > 49 µM, the TGI (NCI-H460 lung) was 5.79 µM and > 49 µM and the GI50 (M14 melanoma) was greater than 49 µM. For the same compound, the TGI (M14 melanoma) was 6.09 µM and > 49 µM, the GI50 (HOP-92 NSCLC) was greater than 49 µM and the TGI (HOP-92 NSCLC) was greater than 49 µM. For the same compound, the TGI (LOX IMVI melanoma) was 6.53 µM and > 49 µM, the TGI (NCI-H23 lung) was 6.48 µM and > 49 µM and the GI50 (EKVX NSCLC) was 5.01 µM and 15.7 µM. For the same compound, the TGI (EKVX NSCLC) was 17.3 µM and > 49 µM.
With `CC1(C(=O)O)CCC[C@@]2(C)C1CC[C@@]1(C)c3cocc3CCC21` (stereo not given in full) the TGI (HCC-2998 colon) was greater than 100 µM, the TGI (UO-31 renal) was greater than 100 µM and the TGI (CCRF-CEM leukemia) was greater than 100 µM. The TGI (OVCAR-4 ovarian) was greater than 100 µM, the TGI (OVCAR-3 ovarian) was greater than 100 µM and the TGI (SK-OV-3 ovarian) was greater than 100 µM. For the same compound, the TGI (HL-60(TB) leukemia) was greater than 100 µM, the TGI (NCI-H226 lung) was greater than 100 µM and the TGI (SW-620 colon) was greater than 100 µM. It also gave a TGI (SF-268 CNS) greater than 100 µM, a TGI (COLO 205 colon) greater than 100 µM and a TGI (HT29 colon) greater than 100 µM. The TGI (SNB-78 CNS) was greater than 100 µM, the TGI (HOP-62 NSCLC) was greater than 100 µM and the TGI (MOLT-4 leukemia) was greater than 100 µM. It also gave a TGI (SR leukemia) greater than 100 µM, a TGI (SF-295 CNS) greater than 100 µM and a TGI (TK-10 renal) greater than 100 µM. The TGI (OVCAR-5 ovarian) was greater than 100 µM, the TGI (RPMI-8226 leukemia) was greater than 100 µM and the TGI (RXF 393 renal) was greater than 100 µM. It also gave a TGI (UACC-257 melanoma) greater than 100 µM, a TGI (SN12C renal) greater than 100 µM and a TGI (SK-MEL-5 melanoma) greater than 100 µM. It also gave a TGI (A498 renal) greater than 100 µM, a TGI (KM12 colon) greater than 100 µM and a TGI (U251 CNS) greater than 100 µM. It also gave a TGI (UACC-62 melanoma) greater than 100 µM, a TGI (ACHN renal) greater than 100 µM and a TGI (IGROV1 ovarian) greater than 100 µM. The TGI (SNB-19 CNS) was greater than 100 µM, the TGI (SK-MEL-28 melanoma) was greater than 100 µM and the TGI (A549 NSCLC) was greater than 100 µM. The TGI (RXF-631 renal) was greater than 100 µM, the TGI (DMS 114 small cell lung) was greater than 100 µM and the TGI (SK-MEL-2 melanoma) was greater than 100 µM. The TGI (HCT-15 colon) was greater than 100 µM, the TGI (DLD-1 colon) was greater than 100 µM and the TGI (M19-MEL melanoma) was greater than 100 µM. The TGI (OVCAR-8 ovarian) was greater than 100 µM, the TGI (DMS 273 small cell lung) was greater than 100 µM and the TGI (HOP-18 NSCLC) was greater than 100 µM. The TGI (MALME-3M melanoma) was greater than 100 µM, the TGI (CAKI-1 renal) was greater than 100 µM and the TGI (LXFL 529 NSCLC) was greater than 100 µM. For the same compound, the TGI (786-0 renal) was greater than 100 µM, the TGI (KM20L2 colon) was greater than 100 µM and the TGI (SF-539 CNS) was greater than 100 µM. It also gave a TGI (SNB-75 CNS) greater than 100 µM, a TGI (K-562 leukemia) greater than 100 µM and a TGI (HCT-116 colon) greater than 100 µM. The TGI (NCI-H460 lung) was greater than 100 µM, the TGI (M14 melanoma) was greater than 100 µM and the TGI (HOP-92 NSCLC) was greater than 100 µM. For the same compound, the TGI (LOX IMVI melanoma) was greater than 100 µM, the TGI (XF 498 CNS) was greater than 100 µM and the TGI (NCI-H23 lung) was greater than 100 µM. For the same compound, the TGI (EKVX NSCLC) was greater than 100 µM.
